Data as given in patent US8354443B2, “Cyclopropane indolinone derivatives” (Hoffmann-La Roche Inc., priority 2009, dated 2013).

Tested on: recombinant AMPK proteins (α1β1γ1, α2β1γ1, α1(1-335), α1(1-394) or α2(1-394))
Assay: Scintillation Proximity Assay (AMPK activation)
Type: biochemical, human
Details: effective concentration of activator for 50% of maximal enzyme activity; 2 hr at 30° C.; AMPK form not specified
Text: Recombinant human AMPK α1β1γ1, α2β1γ1 or AMPK a subunit truncations α1 (1-335), α1 (1-394) and α2(1-394) were constructed, expressed and purified as described previously (Pang, T., Zhang, Z. S., Gu, M., Qiu, B. Y., Yu, L. F., Cao, P. R., Shao, W., Su, M. B., Li, J. Y., Nan, F. J., and Li, J. (2008) or purchased from Invitrogen (San Diego, Calif., U.S.A.). Rat liver AMPK heterotrimer enzyme was obtained from Upstate (Billerica, Mass., U.S.A.).
Before the Scintillation Proximity Assay (SPA) assay, 200 nM recombinant AMPK proteins (α1β1γ1, α2β1γ1, α1(1-335), α1(1-394) or α2(1-394)) were fully phosphorylated as described previously (Pang et al., 2008). SPA reactions were performed in 96-well plates at a final volume of 50 μl containing 20 mM Tris-HCl pH 7.5, 5 mM MgCl2, 1 mM DTT, 2 μM biotin-SAMS, 2 μM ATP, 0.2 μCi/well [γ-^33P]ATP, and various amount of activator. Reactions were initiated by the addition of 50 nM recombinant AMPK proteins to the reaction solutions and incubated at 30° C. for 2 hr. After that, reactions were terminated by the addition of 40 μl stop solution containing 80 μg streptavidin-coated SPA beads per well, 50 mM EDTA, 0.1% Triton X-100 in PBS, pH 7.5 and incubated for 1 hr. Finally, a 160 μl suspension solution containing 2.4 M CsCl, 50 mM EDTA, and 0.1% Triton X-100 in PBS (pH 7.5) was added to the reaction solution to suspend SPA beads completely. SPA signals were determined with a Wallac MicroBeta plate counter (PerkinElmer) 30 min later for calculation of the amount of product formed. The amount of products formed in 2 hr was plotted against activator concentrations to determine the effective concentration of the activator (EC50) required for 50% of maximal enzyme activity.

Row | EC50 [nM] | Compound
1 | 1680 | O=C1N(CCN2CCN(c3ccncc3)CC2)c2ccccc2[C@@]12C[C@@H]2c1ccc(Cl)cc1 (racemic) [Example 129, (1S,2R) and (1R,2S)-2-(4-chlorophenyl)-1′-(2-(4-(pyridin-4-yl)piperazin-1-yl)ethyl) spiro[cyclopropane-1,3′-indolin]-2′-one]
2 | 2170 | CN(C)[C@@H]1CCN(CCN2C(=O)[C@@]3(C[C@H]3c3ccc(Cl)cc3)c3ccccc32)C1 (mixture of isomers) [Example 77, (1S,2R)-2-(4-chlorophenyl)-1′-(2-((R)-3-(dimethylamino)pyrrolidin-1-yl)ethyl)spiro[cyclopropane-1,3′-indolin]-2′-one and (1R,2S)-2-(4-chlorophenyl)-1′-(2-((R)-3-(dimethylamino)pyrrolidin-1-yl)ethyl)spiro[cyclopropane-1,3′-indolin]-2′-one]
3 | 1660 | O=C(O)c1cccc(CN2C(=O)[C@]3(C[C@H]3c3ccc(Cl)cc3)c3cc(F)ccc32)c1 (racemic) [Example 23, (1S,2S) and (1R,2R)-3-((2-(4-chlorophenyl)-5′-fluoro-2′-oxospiro[cyclopropane-1,3′-indoline]-1′-yl)methyl)benzoic acid]
4 | 5400 | O=C1N(CC2CCNCC2)c2ccccc2[C@@]12C[C@@H]2c1ccc(Cl)cc1 (racemic) [Example 124, (1S,2R) and (1R,2S)-2-(4-chlorophenyl)-1′-(piperidin-4-ylmethyl) Spiro[cyclopropane-1,3′-indolin]-2′-one]
5 | 2030 | O=C(O)c1cccc(CN2C(=O)[C@@]3(C[C@@H]3c3ccc(Cl)cc3)c3cc(Cl)ccc32)c1 (racemic) [Example 14, (1R,2R) and (1S,2S)-3-((5′-chloro-2-(4-chlorophenyl)-2′-oxospiro[cyclopropane-1,3′-indoline]-1′-yl)methyl)benzoic acid]
6 | 1400 | CN1CCN(C(=O)c2cccc(N3C(=O)[C@]4(C[C@@H]4c4ccc(Cl)cc4)c4ccccc43)c2)CC1 (racemic) [Example 89, (1S,2R) and (1R,2S)-2-(4-chlorophenyl)-1′-(3-(4-methylpiperazine-1-carbonyl)phenyl)spiro[cyclopropane-1,3′-indolin]-2′-one]
7 | 7100 | O=C(O)c1cc(CN2C(=O)[C@]3(C[C@@H]3c3ccc(Cl)cc3)c3ccccc32)ccc1Cl (racemic) [Example 6, (1S,2R) and (1R,2S)-2-chloro-5-((2-(4-chlorophenyl)-2′-oxospiro[cyclopropane-1,3′-indoline]-1′-yl)methyl)benzoic acid]
8 | 3270 | O=C1N(c2c[nH]cn2)c2ccccc2[C@@]12C[C@@H]2c1ccc(Cl)cc1 (racemic) [Example 131, (1S,2R) and (1R,2S)-2-(4-chlorophenyl)-1′-(1H-imidazol-4-yl)spiro[cyclopropane-1,3′-indolin]-2′-one]
9 | 2030 | COc1ccc([C@H]2C[C@]23C(=O)N(Cc2cccc(C(=O)O)c2)c2ccccc23)cc1 (racemic) [Example 21, (1S,2R) and (1R,2S)-3-((2-(4-methoxyphenyl)-2′-oxospiro[cyclopropane-1,3′-indoline]-1′-yl)methyl)benzoic acid]
10 | 950 | O=C(c1cccc(N2C(=O)[C@]3(C[C@H]3c3ccc(Cl)cc3)c3ccccc32)c1)N1CCOCC1 (racemic) [Example 85, (1S,2S) and (1R,2R)-2-(4-chlorophenyl)-1′-(3-(morpholine-4-carbonyl)phenyl)spiro [cyclopropane-1,3′-indolin]-2′-one]
11 | 2600 | O=C1N(Cc2cccnc2)c2ccccc2[C@@]12C[C@@H]2c1ccc(Cl)cc1 (racemic) [Example 79, (1S,2R) and (2R,1S)-2-(4-chlorophenyl)-1′-(pyridin-3-ylmethyl)spiro[cyclopropane-1,3′-indolin]-2′-one]
12 | 6480 | O=C(NCCN1CCOCC1)c1cccc(CN2C(=O)[C@@]3(C[C@H]3c3ccc(Cl)cc3)c3ccccc32)c1 (racemic) [Example 114, (1R,2S) and (1S,2R)-3-((2-(4-chlorophenyl)-2′-oxospiro[cyclopropane-1,3′-indoline]-1′-yl)methyl)-N-(2-morpholinoethyl)benzamide]
13 | 5910 | CN(C)CCN1CCN(CCN2C(=O)[C@]3(C[C@@H]3c3ccc(Cl)cc3)c3ccccc32)CC1 (racemic) [Example 75, (1S,2R) and (1R,2S)-2-(4-chlorophenyl)-1′-(2-(4-(2-(dimethylamino)ethyl)piperazin-1-yl)ethyl) Spiro[cyclopropane-1,3′-indolin]-2′-one]
14 | 2980 | O=C(O)c1cccc(N2C(=O)[C@]3(C[C@H]3c3ccc(Cl)cc3)c3ccccc32)c1 (racemic) [Example 84, (1S,2S) and (1R,2R)-3-(−2-(4-chlorophenyl)-2′-oxospiro[cyclopropane-1,3′-indoline]-1′-yl)benzoic acid]
15 | 1710 | CC(C)N1CCN(C(=O)c2cccc(CN3C(=O)[C@]4(C[C@@H]4c4ccc(Cl)cc4)c4ccccc43)c2)CC1 (racemic) [Example 65, (1S,2R) and (1R,2S)-2-(4-chlorophenyl)-1′-(3-(4-isopropylpiperazine-1-carbonyl)benzyl)spiro[cyclopropane-1,3′-indolin]-2′-one]
16 | 870 | O=C(O)c1cc(N2CCOC2=O)cc(N2C(=O)[C@]3(C[C@H]3c3ccc(Cl)cc3)c3ccccc32)c1 (racemic) [Example 92, (1S,2S) and (1R,2R)-3-(2-(4-chlorophenyl)-2′-oxospiro[cyclopropane-1,3′-indoline]-1′-yl)-5-(2-oxooxazolidin-3-yl)benzoic acid]
17 | 960 | O=C(O)c1cccc(CN2C(=O)[C@@]3(C[C@@H]3c3ccc(Cl)cc3)c3ccccc32)c1 (racemic) [Example 2, (1R,2R) and (1S,2S)-3-((2-(4-chlorophenyl)-2′-oxospiro[cyclopropane-1,3′-indoline]-1′-yl)methyl)benzoic acid]
18 | 1600 | O=C(c1cccc(CN2C(=O)[C@@]3(C[C@H]3c3ccc(Cl)cc3)c3ccccc32)c1)N1CCN(c2ccncc2)CC1 (racemic) [Example 64, (1R,2S) and (1S,2R)-2-(4-chlorophenyl)-1′-(3-(4-(pyridin-4-yl)piperazine-1-carbonyl)benzyl)spiro[cyclopropane-1,3′-indolin]-2′-one]
19 | 1070 | CN1CCCC1CCNC(=O)c1cccc(CN2C(=O)[C@]3(C[C@@H]3c3ccc(Cl)cc3)c3ccccc32)c1 (stereo partly drawn) [Example 66, 3-(((1S,2R)-2-(4-chlorophenyl)-2′-oxospiro[cyclopropane-1,3′-indoline]-1′-yl)methyl)-N-(2-((S)-1-methylpyrrolidin-2-yl)ethyl)benzamide and 3-(((1R,2S)-2-(4-chlorophenyl)-2′-oxospiro[cyclopropane-1,3′-indoline]-1′-yl)methyl)-N-(2-((5)-1-methylpyrrolidin-2-yl)ethyl)benzamide]
20 | 1630 | N#Cc1ccc([C@@H]2C[C@]23C(=O)N(Cc2cccc(C(=O)O)c2)c2ccccc23)cc1 (racemic) [Example 17, (1S,2S) and (1R,2R)-3-((2-(4-cyanophenyl)-2′-oxospiro[cyclopropane-1,3′-indoline]-1′-yl)methyl)benzoic acid]
21 | 4200 | O=C1N(Cc2ccncc2)c2ccccc2[C@]12C[C@H]2c1ccc(Cl)cc1 (racemic) [Example 78, (1R,2S) and (1S,2R)-2-(4-chlorophenyl)-1′-(pyridin-4-ylmethyl)spiro[cyclopropane-1,3′-indolin]-2′-one]
22 | 2590 | O=C(O)c1cccc(N2C(=O)[C@]3(C[C@@H]3c3ccc(Cl)cc3)c3ccccc32)c1 (racemic) [Example 83, (1S,2R) and (1R,2S)-3-(2-(4-chlorophenyl)-2′-oxospiro[cyclopropane-1,3′-indoline]-1′-yl)benzoic acid]

Row | Compound | EC50 [nM]
23 | (1R,2R) and (1S,2S)-((2-(4-(methylsulfonyl)phenyl)-2′-oxospiro[cyclopropane-1,3′-indoline]-1′-yl)methyl)benzoic acid [Example 4] | 2200
